Laboratory results: US20250344697A1, “ENANTIOMERICALLY ENRICHED […] THE CONTROL OF RESISTANT PHYTOPATHOGENIC FUNGI” (SYNGENTA CROP PROTECTION AG, priority 2022, published 2025)

Assays:
Experiment in all cases: in vitro antifungal test, Z. tritici spore suspension in PDB
Assay type in all cases: cell-based
[1] = test system: K5544 Zymoseptoria tritici (WT); conditions: isolate K5544 (WT); for EC50 (ppm): growth at 3 days post exposure, average of two replicates; for M = (EC50 (enantiomer)/EC50 (racemate)) − 0.5: (−)-enantiomer vs racemate, below 0 = enantiomer outperforms racemate
Method: (§1) A panel of 16 Zymoseptoria tritici isolates was subjected to in vitro antifungal tests. Spore suspensions of Z. tritici isolates were prepared in potato dextrose broth (PDB) and exposed to defined concentration ranges of the inhibitors (20ppm starting concentration, dilution steps of 3). A sensitive wild-type isolate was used together with a panel of strains containing variants of the Z. tritici CYP51 gene conferring resistance to DMI fungicides. The DMI-resistant isolates were isolated from wheat in the UK, Ireland, Germany and Russia in 2020. Determination of CYP51 gene variants was achieved using targeted gene sequencing. The half maximal effective concentration (EC50) of the inhibitors were calculated based on growth responses of Z. tritici at 3 days post exposure to the different concentrations of the […] using a linear regression. The Tables A and B show an average of EC50 values in ppm from two replicates, as well as M=(EC50 (enantiomer)/EC50 (racemate))−0.5.

[2] = test system: K9020 Zymoseptoria tritici CYP51 L50S V136A I381V Y461S S524T; conditions: isolate K9020; for EC50 (ppm): growth at 3 days post exposure, average of two replicates; for M = (EC50 (enantiomer)/EC50 (racemate)) − 0.5: (−)-enantiomer vs racemate, below 0 = enantiomer outperforms racemate
Method: as §1

[3] = test system: K9021 Zymoseptoria tritici CYP51 L50S V136A I381V Y461S S524T; conditions: isolate K9021; for EC50 (ppm): growth at 3 days post exposure, average of two replicates; for M = (EC50 (enantiomer)/EC50 (racemate)) − 0.5: (−)-enantiomer vs racemate, below 0 = enantiomer outperforms racemate
Method: as §1

[4] = test system: K9022 Zymoseptoria tritici CYP51 L50S V136A I381V Y461S S524T; conditions: isolate K9022; for EC50 (ppm): growth at 3 days post exposure, average of two replicates; for M = (EC50 (enantiomer)/EC50 (racemate)) − 0.5: (−)-enantiomer vs racemate, below 0 = enantiomer outperforms racemate
Method: as §1

[5] = test system: K9023 Zymoseptoria tritici CYP51 L50S V136C S188N A379G I381V YG459 S524T; conditions: for EC50 (ppm): growth at 3 days post exposure, average of two replicates; for M = (EC50 (enantiomer)/EC50 (racemate)) − 0.5: (−)-enantiomer vs racemate
Method: as §1

[6] = test system: K9026 Zymoseptoria tritici CYP51 L50S S188N A379G I381V YG459 N513K; conditions: for EC50 (ppm): growth at 3 days post exposure, average of two replicates; for M = (EC50 (enantiomer)/EC50 (racemate)) − 0.5: (−)-enantiomer vs racemate
Method: as §1

[7] = test system: K9029 Zymoseptoria tritici CYP51 L50S I381V YG459 N513K; conditions: for EC50 (ppm): growth at 3 days post exposure, average of two replicates; for M = (EC50 (enantiomer)/EC50 (racemate)) − 0.5: (−)-enantiomer vs racemate; for effectiveness compared with the racemate (in words): isolate K9029, summary of Tables A and B
Method: as §1

[8] = test system: K9032 Zymoseptoria tritici CYP51 L50S D134G V136A I381V Y461H S524T; conditions: for EC50 (ppm): growth at 3 days post exposure, average of two replicates; for M = (EC50 (enantiomer)/EC50 (racemate)) − 0.5: (−)-enantiomer vs racemate
Method: as §1

SMILES | EC50 (ppm) [1] [ppm] | EC50 (ppm) [2] [ppm] | EC50 (ppm) [3] [ppm] | EC50 (ppm) [4] [ppm] | EC50 (ppm) ([5]; isolate K9023, 2nd listed row) | EC50 (ppm) ([5]; isolate K9023, 3rd listed row) | EC50 (ppm) ([5]; isolate K9023) | EC50 (ppm) ([6]; isolate K9026, 1st listed row) | EC50 (ppm) ([6]; isolate K9026, 2nd listed row) | EC50 (ppm) ([6]; isolate K9026, 3rd listed row) | EC50 (ppm) ([7]; isolate K9029, 1st listed row) | EC50 (ppm) ([7]; isolate K9029, 2nd listed row) | EC50 (ppm) ([7]; isolate K9029, 3rd listed row) | EC50 (ppm) ([8]; isolate K9032, 1st listed row) | EC50 (ppm) ([8]; isolate K9032, 2nd listed row) | EC50 (ppm) ([8]; isolate K9032, 3rd listed row) | M = (EC50 (enantiomer)/EC50 (racemate)) − 0.5 [1] | M = (EC50 (enantiomer)/EC50 (racemate)) − 0.5 [2] | M = (EC50 (enantiomer)/EC50 (racemate)) − 0.5 [3] | M = (EC50 (enantiomer)/EC50 (racemate)) − 0.5 [4] | also measured
COC(=O)C(O)(Cn1cncn1)c1ccc(Oc2ccc(Cl)cc2)cc1Cl (racemic) [Racemate Compound I-1] | 0.03 | 0.03 | 0.09 | 0.6 | 0.2 | 0.4 | 0.5 | 10 | 0.1 | 0.1 | 0.8 | 3 | 10 | 0.2 | 0.1 | 0.1 | – | – | – | – | –
COC(=O)C(O)(Cn1cncn1)c1ccc(Oc2ccc(Cl)cc2)cc1C(F)(F)F (racemic) [Racemate Compound I-2] | 0.03 | 0.03 | 0.09 | 0.7 | 0.1 | 0.3 | 0.3 | 6 | 0.07 | 0.07 | 0.8 | 3 | 10 | 0.2 | 0.1 | 0.1 | – | – | – | – | –
COC(=O)C(O)(Cn1cncn1)c1ccc(Oc2ccc(Cl)cc2)cc1Cl (single isomer, unassigned; (+)) [(+)-enantiomer of Compound I-1, (+)Methyl 2-[2-chloro-4-(4-chlorophenoxy)phenyl]-2-hydroxy-3-(1,2,4-triazol-1-yl)propanoate] | 1 | 2 | 5 | 20 | 9 | 19 | 20 | 20 | 5 | 3 | 20 | 20 | 20 | 12 | 7 | 8 | – | – | – | – | –
COC(=O)C(O)(Cn1cncn1)c1ccc(Oc2ccc(Cl)cc2)cc1C(F)(F)F (single isomer, unassigned; (+)) [(+)-enantiomer of Compound I-2] | 0.5 | 1 | 3 | >20 | 6 | 9 | 9 | >20 | 3 | 2 | >20 | >20 | >20 | 7 | 4 | 4 | – | – | – | – | –
COC(=O)C(O)(Cn1cncn1)c1ccc(Oc2ccc(Cl)cc2)cc1Cl (single isomer, unassigned; (-)) [(−)-enantiomer of Compound I-1, (−)-Methyl 2-[2-chloro-4-(4-chlorophenoxy)phenyl]-2-hydroxy-3-(1,2,4-triazol-1-yl)propanoate] | 0.02 | 0.01 | 0.04 | 0.3 | 0.1 | 0.2 | 0.3 | 4 | 0.05 | 0.05 | 0.3 | 0.8 | 3 | 0.1 | 0.06 | 0.06 | 0.17 | −0.17 | −0.06 | 0.00 | effectiveness compared with the racemate (in words) ([2]; summary of Tables A and B): more effective; M = (EC50 (enantiomer)/EC50 (racemate)) − 0.5 ([5]; isolate K9023, 2nd listed row): 0.00; M = (EC50 (enantiomer)/EC50 (racemate)) − 0.5 ([5]; isolate K9023, 3rd listed row): 0.00; M = (EC50 (enantiomer)/EC50 (racemate)) − 0.5 ([5]; isolate K9023): 0.10; M = (EC50 (enantiomer)/EC50 (racemate)) − 0.5 ([6]; isolate K9026, 1st listed row): −0.10; M = (EC50 (enantiomer)/EC50 (racemate)) − 0.5 ([6]; isolate K9026, 2nd listed row): 0.00; M = (EC50 (enantiomer)/EC50 (racemate)) − 0.5 ([6]; isolate K9026, 3rd listed row): 0.00; effectiveness compared with the racemate (in words) ([6]; isolate K9026, summary of Tables A and B): more effective; M = (EC50 (enantiomer)/EC50 (racemate)) − 0.5 ([7]; isolate K9029, 1st listed row): −0.13; M = (EC50 (enantiomer)/EC50 (racemate)) − 0.5 ([7]; isolate K9029, 2nd listed row): −0.23; M = (EC50 (enantiomer)/EC50 (racemate)) − 0.5 ([7]; isolate K9029, 3rd listed row): −0.20; effectiveness compared with the racemate (in words) [7]: more effective; M = (EC50 (enantiomer)/EC50 (racemate)) − 0.5 ([8]; isolate K9032, 1st listed row): 0.00; M = (EC50 (enantiomer)/EC50 (racemate)) − 0.5 ([8]; isolate K9032, 2nd listed row): 0.10; M = (EC50 (enantiomer)/EC50 (racemate)) − 0.5 ([8]; isolate K9032, 3rd listed row): 0.10
COC(=O)C(O)(Cn1cncn1)c1ccc(Oc2ccc(Cl)cc2)cc1C(F)(F)F (single isomer, unassigned; (-)) [(−)-enantiomer of Compound I-2, (−)-Methyl 2-[4-(4-chlorophenoxy)-2-(trifluoromethyl)phenyl]-2-hydroxy-3-(1,2,4-triazol-1-yl)propanoate] | 0.03 | 0.02 | 0.05 | 0.4 | 0.1 | 0.2 | 0.3 | 3 | 0.05 | 0.04 | 0.5 | 1 | 5 | 0.1 | 0.07 | 0.08 | 0.50 | 0.17 | 0.06 | 0.07 | M = (EC50 (enantiomer)/EC50 (racemate)) − 0.5 ([5]; isolate K9023, 2nd listed row): 0.50; M = (EC50 (enantiomer)/EC50 (racemate)) − 0.5 ([5]; isolate K9023, 3rd listed row): 0.17; M = (EC50 (enantiomer)/EC50 (racemate)) − 0.5 ([5]; isolate K9023): 0.50; M = (EC50 (enantiomer)/EC50 (racemate)) − 0.5 ([6]; isolate K9026, 1st listed row): 0.00; M = (EC50 (enantiomer)/EC50 (racemate)) − 0.5 ([6]; isolate K9026, 2nd listed row): 0.21; M = (EC50 (enantiomer)/EC50 (racemate)) − 0.5 ([6]; isolate K9026, 3rd listed row): 0.07; M = (EC50 (enantiomer)/EC50 (racemate)) − 0.5 ([7]; isolate K9029, 1st listed row): 0.13; M = (EC50 (enantiomer)/EC50 (racemate)) − 0.5 ([7]; isolate K9029, 2nd listed row): −0.17; M = (EC50 (enantiomer)/EC50 (racemate)) − 0.5 ([7]; isolate K9029, 3rd listed row): 0.00; effectiveness compared with the racemate (in words) [7]: more effective; M = (EC50 (enantiomer)/EC50 (racemate)) − 0.5 ([8]; isolate K9032, 1st listed row): 0.00; M = (EC50 (enantiomer)/EC50 (racemate)) − 0.5 ([8]; isolate K9032, 2nd listed row): 0.20; M = (EC50 (enantiomer)/EC50 (racemate)) − 0.5 ([8]; isolate K9032, 3rd listed row): 0.30
